Data set [1] deals with renin dependent hypertension. Description: Acute renovascular hypertension model, inflatable aortic cuff, monkey. It is filed as in vivo, Macaca fascicularis. The settings on record: one monkey, cuff inflated. The method, then: The animal model of acute renovascular hypertension is prepared by surgically implanting an inflatable cuff about the aorta above the left kidney of an adult Macaca fascicularis as descirbed by Cody, R. J. et al (1980) Hypertension. The right kidney is subsequently removed and catheters implanted in the right iliac vein and artery. Two arterial catheters lead from above and below the constricting cuff to strain gauges permit blood pressure to be measured both above and below the cuff.
Inflation of the cuff creates a measurable amount of ischemia to the remaining kidney and renin dependent hypertension develops in about one hour.
The results of the injection of (RI-78) on the blood pressure and plasma renin level of one monkey are summarized below. The converting enzyme inhibitor teprotide (Ondetti et al, 19) is used as a control.

The target of the next data set is T1, human renin (Homo sapiens, UniProt P00797).
T1 sequence (P00797 67-406): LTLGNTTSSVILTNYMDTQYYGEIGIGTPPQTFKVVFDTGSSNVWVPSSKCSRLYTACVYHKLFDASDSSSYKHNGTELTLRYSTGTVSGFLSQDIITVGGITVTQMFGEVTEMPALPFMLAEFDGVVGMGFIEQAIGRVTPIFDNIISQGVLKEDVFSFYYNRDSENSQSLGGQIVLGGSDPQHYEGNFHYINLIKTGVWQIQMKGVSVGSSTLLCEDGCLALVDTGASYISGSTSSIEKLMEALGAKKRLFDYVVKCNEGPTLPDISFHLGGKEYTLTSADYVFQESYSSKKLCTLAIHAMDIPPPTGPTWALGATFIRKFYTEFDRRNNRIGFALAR
Description: IC50 on human renin, angiotensin I generation from tetradecapeptide renin substrate (assay of Burton et al). It is filed as biochemical. As to the method:
The assay for testing the inhibitory activities of the pentapeptides on renin is described in Burton, J. et al, Biochem. 14: 3892-3898 (1975), which is herein incorporated by reference.
The 11 pentapeptides shown in Table I were synthesized by standard solid phase peptide synthesis as shown in the description following the table and the IC50 (concentration at which inhibition is 50%) value on human renin in the assay of Burton et al, supra, was determined for each sample.
Angiotensin I standards and tetradecapeptide renin substrate (TDP) were obtained from Peninsula Laboratories Inc. (San Mateo, CA). Renin was a gift of Dr. E. Slater (1980). Angiotensin I concentration was determined by radioimmunoassay using a commercially available kit (Clinical Assays, Cambridge, MA).
Standard renin solution (V3) is diluted 4-fold with M Tris-lysozyme buffer (pH 7.40). Concentration of […] of the renin inhibitor being tested are also prepared in the Tris-lysozyme buffer. For the uninhibited reaction Tris-lysozyme buffer alone is used in place of the inhibitor solution.
Reaction mixtures containing TDP solution ([…], 25 µM), renin solution (50 liters, 20-fold diluted), and the inhibitor (50 liters, 50-1000 M) were incubated for 1 hr at 37°, diluted 1000-fold and assayed for angiotensin I.
Inhibition is determined by the following equation:
% Inh.=((ng ANG Iunhib -ng ANG Iinh)/ng ANG
IC50 is determined by plotting Percent inhibition (% Inh.) against the inhibitor concentration and interpolating to determine the molarity of inhibitor at which 50% inhibition is observed.
Cross-reactivity of TDP with ANG I is less than 0.05%.

For the next data set, the system named is isolated gut section. Kind of data set: In vitro transport of radiolabeled pentapeptide across isolated gut section. Conditions: radiolabeled pentapeptide added to one side of an isolated gut section, label measured on the other side. The format is in vitro ADME. From the text: Of particular interest is the fact that the peptides of the present invention are short chained, and can potentially be used as orally active peptides.

The target of the next data set is renin. Conditions: pH 7.4; Poulsen et al 1973; read-out: inhibitory constant (KI); cited from earlier work.
Setting [2] is: IC50 (concentration at which inhibition is 50%), Table I, human renin.
Where [3] appears, read: IC50, TDP substrate, pH 7.40, 1 hr at 37°.
Where [4] appears, read: Table I, human renin, read-out: IC50 (concentration at which inhibition is 50%).
Setting [5] is: time 145 min, injection of teprotide (control).
The mark [6] stands for this setting: printed with the characterisation data of each peptide, TDP substrate, pH 7.40, 1 hr at 37°, read-out: IC50.

A word on the Ki: it is a dissociation constant, usually derived from enzyme kinetics or from competition with a known ligand.

Where two headings read alike, the source gives them in different places. Where a SMILES comes first, the peptide text is derived from it. Where no end group is shown, it is not given here. [ ]: non-standard residue; d: D form. Phe(4-Cl) = N[C@@H](Cc1ccc(Cl)cc1)C(=O)O

As for `CC(C)[C@H](NC(=O)[C@H](Cc1ccccc1)NC(=O)[C@@H](N)Cc1ccc(Cl)cc1)C(=O)N[C@@H](Cc1ccc(O)cc1)C(=O)N[C@@H](CCCCN)C(N)=O` [RI-78, 4-chlorophenylalanylphenylalanylvalyltyrosyllysine-amide] (H-[Phe(4-Cl)]FVYK-NH2), the “Blood Pressure” value in data set [1] (time 0 min, injection 0.5 mg RI-78) is on record as 113 mm Hg; in data set [1] (time 10 min, injection 2.5 mg RI-78), 65 mm Hg; in data set [1] (time 25 min (15 min after 2.5 mg RI-78), no further injection), 111 mm Hg. Moreover, in data set [1] (time 30 min (20 min after 2.5 mg RI-78), no further injection), the “Plasma Renin Activity” value amounted to 28.5. In addition, the IC50 against human renin (setting [2]) and against human renin (setting [3]) was 70 µM in each case. `CC(C)[C@H](NC(=O)[C@H](Cc1ccc(Cl)cc1)NC(=O)[C@@H](N)Cc1ccccc1)C(=O)N[C@@H](Cc1ccc(O)cc1)C(=O)N[C@@H](CCCCN)C(N)=O` [RI-80, Phenylalanyl-4-chlorophenylalanylvalyltyrosyllysineamide] (H-F[Phe(4-Cl)]VYK-NH2): the “transport across the gut” value in the data set on isolated gut section is “transported across the gut”. Also, the IC50 at human renin (setting [4]) worked out at 40 µM. With `CC(C)[C@H](NC(=O)[C@H](Cc1ccccc1)NC(=O)[C@@H](N)Cc1ccccc1)C(=O)N[C@@H](Cc1ccc(Cl)cc1)C(=O)N[C@@H](CCCCN)C(N)=O` [RI-85, Phenylalanylphenylalanylvalyl-4-chlorophenylalanyllysine-amide] (H-FFV[Phe(4-Cl)]K-NH2), the IC50 is approximately 100 µM on human renin (setting [2]) and 175 µM on human renin (setting [3]). On human renin (setting [2]), `COc1ccc(C[C@H](NC(=O)[C@@H](N)Cc2ccccc2)C(=O)N[C@H](C(=O)N[C@@H](Cc2ccc(O)cc2)C(=O)N[C@@H](CCCCN)C(N)=O)C(C)C)cc1` [RI-102, Phenylalanyl-O-methyltyrosylvalyltyrosyllysine-amide] (H-FY(Me)VYK-NH2) had an IC50 of 190 µM. In the case of `CC[C@H](C)[C@H](NC(=O)[C@H](CCC(N)=O)NC(=O)[C@@H]1CCCN1C(=O)[C@H](CCCNC(=N)N)NC(=O)[C@@H]1CCCN1C(=O)[C@H](Cc1c[nH]c2ccccc12)NC(=O)[C@@H]1CCC(=O)N1)C(=O)N1CCC[C@H]1C(=O)N1CCC[C@H]1C(=O)O` [Teprotide, teprotide, reference compound], in data set [1] (setting [5]), the “Blood Pressure” value turned out to be 76 mm Hg and the “Plasma Renin Activity” value is recorded as not below 37. In turn, “FFTYK-NH2 [RI-83, Phenylalanylphenylalanylthreonyltyrosyllysine-amide]” yielded an IC50 against human renin (setting [2]) of 3750 µM. “FFVFK-NH2 [RI-84, Phenylalanylphenylalanylvalylphenylalanyllysine-amide]” gave an IC50 against human renin (setting [2]) of 750 µM. Regarding “FFVYK-NH2 [RI-77, Phenylalanylphenylalanylvalyltyrosyllysine-amide]”, the IC50 on human renin (setting [2]) amounted to 80 µM.

In the case of “FYVYK-NH2 [RI-81, Phenylalanyltyrosylvalyltyrosyllysine-amide]”, the IC50 against human renin (setting [2]) is 80 µM; at human renin (setting [3]), 150 µM. As to Leu-Leu-Val-TyrH2, the Ki on renin is 1020 µM. Take “Phenylalanylphenylalanyl-threo-3-chloro-L-2-amino-butyryltyrosyllysine amide [RI-82]”: the IC50 at human renin (setting [4]) is 1250 µM; at human renin (setting [6]) it was 2450 µM. Consider “YFVYK-NH2 [RI-79, Tyrosylphenylalanylvalyltyrosyllysine-amide]”, for which the IC50 at human renin (setting [4]) is 140 µM; at human renin (setting [6]), 50 µM.

The values are drawn from patent US4455303A, “Renin inhibitors” (priority 1983, dated 1984).
